22 compounds from ChEMBL document CHEMBL1781956, “Design, synthesis and insulin-sensitizing activity of indomethacin and diclofenac derivatives” (Bioorg Med Chem Lett, 2009) can be followed below.

What all share (format): functional
Assay [1] relates to 3T3-L1. Nature of the assay: Insulin sensitizing activity in mouse 3T3L1 cells assessed as triglyceride accumulation at 1 uM by insulin-regulated cell differentiation assay relative to rosiglitazone.
Assay [2] concerns 3T3-L1. The assay can be described thus: Insulin sensitizing activity in mouse 3T3L1 cells assessed as triglyceride accumulation by insulin-regulated cell differentiation assay.
Assay [3] deals with T1, Peroxisome proliferator-activated receptor gamma (Homo sapiens, UniProt P37231).
T1 sequence (P37231 whole entry): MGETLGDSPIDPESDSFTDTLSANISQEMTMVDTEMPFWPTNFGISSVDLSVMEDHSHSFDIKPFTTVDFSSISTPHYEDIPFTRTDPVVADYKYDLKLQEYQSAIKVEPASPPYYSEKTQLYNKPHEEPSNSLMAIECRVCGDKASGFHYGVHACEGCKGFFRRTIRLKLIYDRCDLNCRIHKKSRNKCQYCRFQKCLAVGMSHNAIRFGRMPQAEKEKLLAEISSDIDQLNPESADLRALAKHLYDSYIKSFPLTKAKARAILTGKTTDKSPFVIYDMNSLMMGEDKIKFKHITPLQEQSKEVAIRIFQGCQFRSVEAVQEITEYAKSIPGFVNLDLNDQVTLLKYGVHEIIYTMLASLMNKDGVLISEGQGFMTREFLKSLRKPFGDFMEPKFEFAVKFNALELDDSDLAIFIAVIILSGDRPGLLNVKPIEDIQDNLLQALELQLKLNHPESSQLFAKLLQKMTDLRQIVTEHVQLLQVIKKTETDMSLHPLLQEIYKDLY
Nature of the assay: Agonist activity at human PPARgamma in human U2OS cells by cell based transactivation assay.

For assay [4], the target named is T2, Peroxisome proliferator-activated receptor gamma (Homo sapiens) (UniProt P37231).
T2 sequence (whole entry): T1 sequence (P37231 whole entry)
Nature of the assay: Agonist activity at human PPARgamma in human U2OS cells by cell based transactivation assay relative to rosiglitazone.

Each structure is given as a SMILES string. Active and inactive are the calls of the source. The rule behind the calls is not given here.

`COC(=O)Cc1c(C)n(C(=O)c2ccc(Cl)cc2)c2ccc(OCCc3nc(-c4ccc(-c5ccccc5)cc4)oc3C)cc12`: in assay [1], the Activity was found to be 138%. The EC30 in assay [2] stood at 1.23 ×10⁻⁸ M. Also, the response in assay [3] was half-maximal at 20 nM (EC50). The Emax in assay [4] was determined as 141%.
Consider `Cc1c(CC(=O)O)c2cc(OCc3ccccc3)ccc2n1C(=O)c1ccc(Cl)cc1`, for which the Activity in assay [1] worked out at 126%. Besides, in assay [2], the EC30 is on record as 9.51 ×10⁻⁹ M. Besides, in assay [3] (u2os), the concentration giving a half-maximal response (EC50) (in general, the concentration at which the effect is half-maximal) is reported as “Not Active”. Moreover, in assay [4], the Emax entry was “inactive”.
Take `O=C(O)Cc1ccc(OCc2ccccc2)cc1Nc1c(Cl)cccc1Cl`: in assay [1], the Activity was 98%. In assay [2], the EC30 stood at 2.51 ×10⁻⁷ M. Moreover, in assay [4], the Emax was found to be 35%.
Consider `Cc1c(CC(=O)O)c2cc(OCCN3CCCCC3)ccc2n1C(=O)c1ccc(Cl)cc1`, for which the Activity in assay [1] turned out to be 30%.
Consider `CCc1ccc(CCOc2ccc3c(c2)c(CC(=O)O)c(C)n3C(=O)c2ccc(Cl)cc2)nc1`, for which the Activity in assay [1] was determined as 42%. The EC30 in assay [2] worked out at 5.89 ×10⁻⁶ M.
Regarding `Cc1oc(-c2ccccc2)nc1CCOc1ccc2c(c1)c(CC(=O)O)c(C)n2C(=O)c1ccc(Cl)cc1`, the Activity in assay [1] was 36%. Also, the EC30 in assay [2] is given as 6.17 ×10⁻⁶ M. This compound also returned an Emax in assay [4] of 79%.
For the compound `COC(=O)Cc1c(C)n(C(=O)c2ccc(Cl)cc2)c2ccc(OCCc3nc(-c4ccccc4)oc3C)cc12`, in assay [1], the Activity stood at 80%. For the same compound, the EC30 in assay [2] was 2.75 ×10⁻⁷ M. Besides, the concentration giving a half-maximal response (EC50) in assay [3] worked out at 620 nM. In addition, the Emax in assay [4] came to 74%.
With `Cc1oc(-c2ccc(Cl)cc2)nc1CCOc1ccc2c(c1)c(CC(=O)O)c(C)n2C(=O)c1ccc(Cl)cc1`, in assay [1], the Activity is 38%.
As to `COC(=O)Cc1c(C)n(C(=O)c2ccc(Cl)cc2)c2ccc(OCCc3nc(-c4ccc(Cl)cc4)oc3C)cc12`, the Activity in assay [1] is reported as 57%. The EC30 in assay [2] turned out to be 2 ×10⁻⁶ M.
For the compound `Cc1oc(-c2ccc(-c3ccccc3)cc2)nc1CCOc1ccc2c(c1)c(CC(=O)O)c(C)n2C(=O)c1ccc(Cl)cc1`, in assay [1], the Activity is given as 129%. In addition, the EC30 in assay [2] is reported as 3.31 ×10⁻⁸ M. Moreover, in assay [3], the EC50 was 40 nM. The same compound yielded an Emax in assay [4] of 134%.
For the compound `COC(=O)Cc1c(C)n(C(=O)c2ccc(Cl)cc2)c2ccc(OCCC/C=C(\C)CC/C=C(\C)CCC=C(C)C)cc12`, in assay [1], the Activity worked out at 81%. In assay [2], the EC30 is 2.88 ×10⁻⁷ M.
With `COC(=O)Cc1c(C)n(C(=O)c2ccc(Cl)cc2)c2ccc(OCCN3CCCCC3)cc12`, in assay [1], the Activity is recorded as 33%.
As to `COC(=O)Cc1c(C)n(C(=O)c2ccc(Cl)cc2)c2ccc(OCc3ccccc3)cc12`, in assay [1], the Activity was determined as 134%. Further, the EC30 in assay [2] is 6.56 ×10⁻⁹ M. Further, the concentration for a half-maximal effect (EC50) result in assay [3] (u2os) is “Not Active”. The Emax entry in assay [4] is “inactive”.
Turning to `CCc1ccc(CCOc2ccc3c(c2)c(CC(=O)OC)c(C)n3C(=O)c2ccc(Cl)cc2)nc1`, in assay [1], the Activity is reported as 50%. For the same compound, in assay [2], the EC30 is recorded as 1.7 ×10⁻⁶ M.
For `COc1cccc(-c2nc(CCOc3ccc4c(c3)c(CC(=O)O)c(C)n4C(=O)c3ccc(Cl)cc3)c(C)o2)c1`, the Activity in assay [1] is 76%. Further, the EC30 in assay [2] was 3.75 ×10⁻⁷ M.
On the same counts, the results for `COC(=O)Cc1c(C)n(C(=O)c2ccc(Cl)cc2)c2ccc(OCCc3nc(-c4cccc(OC)c4)oc3C)cc12` are 85% and 3.16 ×10⁻⁷ M.
On to `COC(=O)Cc1c(C)n(C(=O)c2ccc(Cl)cc2)c2ccc(OCCN3COc4ccccc4C3=O)cc12`, for which the Activity in assay [1] is given as 47%.
On to `CC(C)=CCC/C(C)=C/CC/C(C)=C/CCCOc1ccc2c(c1)c(CC(=O)O)c(C)n2C(=O)c1ccc(Cl)cc1`, for which the Activity in assay [1] worked out at 74%. In addition, in assay [2], the EC30 was 6.92 ×10⁻⁷ M.
`Cc1c(CC(=O)O)c2cc(OCCN3COc4ccccc4C3=O)ccc2n1C(=O)c1ccc(Cl)cc1`: the Activity in assay [1] turned out to be 41%.
On the same count and under the same terms, for `COC(=O)Cc1c(C)n(C(=O)c2ccc(Cl)cc2)c2ccc(OCCN3CCOCC3)cc12` the value was 42%.
For `Cc1c(CC(=O)O)c2cc(OCCN3CCOCC3)ccc2n1C(=O)c1ccc(Cl)cc1`, in assay [1], the Activity is recorded as 36%.
For the compound `CN(CCOc1ccc(CC2SC(=O)NC2=O)cc1)c1ccccn1` (centres undefined) [ROSIGLITAZONE], in assay [1], the Activity was found to be 100%. Also, the EC30 in assay [2] was 1.05 ×10⁻⁷ M.
